Measured values published in publication PMC9848257, “Design and synthesis of novel rigid dibenzo[b,f]azepines through ring closure technique as promising anticancer candidates against leukaemia and acting as selective topoisomerase II inhibitors and DNA intercalators” (Journal of Enzyme Inhibition and Medicinal Chemistry, 2023).

What was measured:
HCT-116 = test: NCI-60 one-dose screen, HCT-116; type: cell-based; conditions: Homo sapiens; HCT-116, colon cancer; single dose 10 μM; read-out: Growth inhibition %
Description: (§1) Anti-proliferative effects of the counterparts 4a–g and 5a–g were screened against 60 human cancer cell lines, following the Developmental Therapeutics Program protocol, National Cancer Institute[35].
(§2) The anti-tumour activity of the fourteen synthesised congeners was investigated at the NCI against a panel of 60 cancer cell lines (NCI-60 Cell One-Dose Screen). The tested dibenzo[b,f]azepine derivatives were screened at a single dose level (10 μM), Table 1.

TK-10 = test: NCI-60 one-dose screen, TK-10; type: cell-based; conditions: Homo sapiens; TK-10, renal cancer; single dose 10 μM; read-out: Growth inhibition %
Description: as §1, §2

OVCAR-3 = test: NCI-60 one-dose screen, OVCAR-3; type: cell-based; conditions: Homo sapiens; OVCAR-3, ovarian cancer; single dose 10 μM; read-out: Growth inhibition %
Description: as §1, §2

NCI-H322M = test: NCI-60 one-dose screen, NCI-H322M; type: cell-based; conditions: Homo sapiens, non-small cell lung cancer, single dose 10 μM, read-out: Growth inhibition %
Description: as §1, §2

MDA-MB-435 = test: NCI-60 one-dose screen, MDA-MB-435; type: cell-based; conditions: Homo sapiens; MDA-MB-435, melanoma; single dose 10 μM; read-out: Growth inhibition %
Description: as §1, §2

CCRF-CEM = test: NCI-60 one-dose screen, CCRF-CEM; type: cell-based; conditions: Homo sapiens, leukaemia, single dose 10 μM, read-out: Growth inhibition %
Description: as §1, §2

MALME-3M = test: NCI-60 one-dose screen, MALME-3M; type: cell-based; conditions: Homo sapiens, melanoma, single dose 10 μM, read-out: Growth inhibition %
Description: as §1, §2

COLO 205 = test: NCI-60 one-dose screen, COLO 205; type: cell-based; conditions: Homo sapiens; COLO 205, colon cancer; single dose 10 μM; read-out: Growth inhibition %
Description: as §1, §2

UACC-257 = test: NCI-60 one-dose screen, UACC-257; type: cell-based; conditions: Homo sapiens; UACC-257, melanoma; single dose 10 μM; read-out: Growth inhibition %
Description: as §1, §2

SF-268 = test: NCI-60 one-dose screen, SF-268; type: cell-based; conditions: Homo sapiens; SF-268, CNS cancer; single dose 10 μM; read-out: Growth inhibition %
Description: as §1, §2

NCI/ADR-RES = test: NCI-60 one-dose screen, NCI/ADR-RES; type: cell-based; conditions: Homo sapiens, ovarian cancer, single dose 10 μM, read-out: Growth inhibition %
Description: as §1, §2

NCI-H23 = test: NCI-60 one-dose screen, NCI-H23; type: cell-based; conditions: Homo sapiens; NCI-H23, non-small cell lung cancer; single dose 10 μM; read-out: Growth inhibition %
Description: as §1, §2

OVCAR-4 = test: NCI-60 one-dose screen, OVCAR-4; type: cell-based; conditions: Homo sapiens; OVCAR-4, ovarian cancer; single dose 10 μM; read-out: Growth inhibition %
Description: as §1, §2

HCT-15 = test: NCI-60 one-dose screen, HCT-15; type: cell-based; conditions: Homo sapiens; HCT-15, colon cancer; single dose 10 μM; read-out: Growth inhibition %
Description: as §1, §2

ACHN = test: NCI-60 one-dose screen, ACHN; type: cell-based; conditions: Homo sapiens, renal cancer, single dose 10 μM, read-out: Growth inhibition %
Description: as §1, §2

EKVX = test: NCI-60 one-dose screen, EKVX; type: cell-based; conditions: Homo sapiens, non-small cell lung cancer, single dose 10 μM, read-out: Growth inhibition %
Description: as §1, §2

T-47D = test: NCI-60 one-dose screen, T-47D; type: cell-based; conditions: Homo sapiens, T47D, breast cancer, single dose 10 μM, read-out: Growth inhibition %
Description: as §1, §2

OVCAR-8 = test: NCI-60 one-dose screen, OVCAR-8; type: cell-based; conditions: Homo sapiens; OVCAR-8, ovarian cancer; single dose 10 μM; read-out: Growth inhibition %
Description: as §1, §2

CAKI-1 = test: NCI-60 one-dose screen, CAKI-1; type: cell-based; conditions: Homo sapiens; CAKI-1, renal cancer; single dose 10 μM; read-out: Growth inhibition %
Description: as §1, §2

IGROV1 = test: NCI-60 one-dose screen, IGROV1; type: cell-based; conditions: Homo sapiens, IGROV-1; IGROV1, ovarian cancer; single dose 10 μM; read-out: Growth inhibition %
Description: as §1, §2

NCI-H460 = test: NCI-60 one-dose screen, NCI-H460; type: cell-based; conditions: Homo sapiens; NCI-H460, non-small cell lung cancer; single dose 10 μM; read-out: Growth inhibition %
Description: as §1, §2

SR = test: NCI-60 one-dose screen, SR; type: cell-based; conditions: Homo sapiens, leukaemia, single dose 10 μM, read-out: Growth inhibition %
Description: as §1, §2

HOP-92 = test: NCI-60 one-dose screen, HOP-92; type: cell-based; conditions: Homo sapiens; HOP-92, non-small cell lung cancer; single dose 10 μM; read-out: Growth inhibition %
Description: as §1, §2

PC-3 = test: NCI-60 one-dose screen, PC-3; type: cell-based; conditions: Homo sapiens; PC-3, prostate cancer; single dose 10 μM; read-out: Growth inhibition %
Description: as §1, §2

OVCAR-5 = test: NCI-60 one-dose screen, OVCAR-5; type: cell-based; conditions: Homo sapiens; OVCAR-5, ovarian cancer; single dose 10 μM; read-out: Growth inhibition %
Description: as §1, §2

A549-ATCC = test: NCI-60 one-dose screen, A549-ATCC; type: cell-based; conditions: Homo sapiens, non-small cell lung cancer, single dose 10 μM, read-out: Growth inhibition %
Description: as §1, §2

MCF-7 = test: NCI-60 one-dose screen, MCF-7; type: cell-based; conditions: Homo sapiens, MCF7; MCF-7, breast cancer; single dose 10 μM; read-out: Growth inhibition %
Description: as §1, §2

HS 578 T = test: NCI-60 one-dose screen, HS 578 T; type: cell-based; conditions: Homo sapiens, breast cancer, single dose 10 μM, read-out: Growth inhibition %
Description: as §1, §2

RXF 393 = test: NCI-60 one-dose screen, RXF 393; type: cell-based; conditions: Homo sapiens; RXF 393, renal cancer; single dose 10 μM; read-out: Growth inhibition %
Description: as §1, §2

DU-145 = test: NCI-60 one-dose screen, DU-145; type: cell-based; conditions: Homo sapiens; DU-145, prostate cancer; single dose 10 μM; read-out: Growth inhibition %
Description: as §1, §2

SK-MEL-5 = test: NCI-60 one-dose screen, SK-MEL-5; type: cell-based; conditions: Homo sapiens; SK-MEL-5, melanoma; single dose 10 μM; read-out: Growth inhibition %
Description: as §1, §2

UO-31 = test: NCI-60 one-dose screen, UO-31; type: cell-based; conditions: Homo sapiens; UO-31, renal cancer; single dose 10 μM; read-out: Growth inhibition %
Description: as §1, §2

SW-620 = test: NCI-60 one-dose screen, SW-620; type: cell-based; conditions: Homo sapiens; SW-620, colon cancer; single dose 10 μM; read-out: Growth inhibition %
Description: as §1, §2

U251 = test: NCI-60 one-dose screen, U251; type: cell-based; conditions: Homo sapiens, U-251; U251, CNS cancer; single dose 10 μM; read-out: Growth inhibition %
Description: as §1, §2

Structure (SMILES)	inhibition at 10 µM (HCT-116)	inhibition at 10 µM (TK-10)	inhibition at 10 µM (OVCAR-3)	inhibition at 10 µM (NCI-H322M)	inhibition at 10 µM (MDA-MB-435)	inhibition at 10 µM (CCRF-CEM)	inhibition at 10 µM (MALME-3M)	inhibition at 10 µM (COLO 205)	inhibition at 10 µM (UACC-257)	melting point	inhibition at 10 µM (SF-268)	inhibition at 10 µM (NCI/ADR-RES)	inhibition at 10 µM (NCI-H23)	inhibition at 10 µM (OVCAR-4)	inhibition at 10 µM (HCT-15)	inhibition at 10 µM (ACHN)	inhibition at 10 µM (EKVX)	inhibition at 10 µM (T-47D)	inhibition at 10 µM (OVCAR-8)	inhibition at 10 µM (CAKI-1)	other results
Clc1ccc(-c2nnc(N3c4ccccc4C=Cc4ccccc43)o2)cc1 [Compound 5c, 2-(4-Chlorophenyl)-5-(5H-dibenzo[b,f]azepin-5-yl)-1,3,4-oxadiazole]	47.7%	< 10%	< 10%	10.5%	< 10%	30.4%	< 10%	< 10%	< 10%	174 to 176 °C	24.7%	14.5%	< 10%	22.1%	63.5%	15.5%	20.8%	< 10%	24%	28.5%	inhibition at 10 µM (IGROV1): 19.2%; inhibition at 10 µM (NCI-H460): 57.3%; inhibition at 10 µM (SR): 67.5%; inhibition at 10 µM (HOP-92): 24%; inhibition at 10 µM (PC-3): 44.1%; inhibition at 10 µM (OVCAR-5): < 10%; inhibition at 10 µM (A549-ATCC): 20.3%; inhibition at 10 µM (MCF-7): 35.6%; inhibition at 10 µM (HS 578 T): < 10%; inhibition at 10 µM (RXF 393): 17.9%; inhibition at 10 µM (DU-145): < 10%; inhibition at 10 µM (SK-MEL-5): 48%; inhibition at 10 µM (UO-31): 33.8%; inhibition at 10 µM (SW-620): < 10%; inhibition at 10 µM (U251): 42.6%
Cc1ccc(-c2nnc(N3c4ccccc4C=Cc4ccccc43)o2)cc1 [Compound 5d, 2-(5 h-Dibenzo[b,f]azepin-5-yl)-5-(p-tolyl)-1,3,4-oxadiazole]	45.8%	< 10%	< 10%	< 10%	< 10%	26.6%	< 10%	19.4%	< 10%	239 to 241 °C	10.1%	< 10%	< 10%	< 10%	61.1%	< 10%	< 10%	< 10%	11.5%	16.2%	inhibition at 10 µM (IGROV1): < 10%; inhibition at 10 µM (NCI-H460): 58.6%; inhibition at 10 µM (SR): 60.6%; inhibition at 10 µM (HOP-92): 14.3%; inhibition at 10 µM (PC-3): 41.4%; inhibition at 10 µM (OVCAR-5): < 10%; inhibition at 10 µM (A549-ATCC): 12.4%; inhibition at 10 µM (MCF-7): 15.7%; inhibition at 10 µM (HS 578 T): 13.2%; inhibition at 10 µM (RXF 393): < 10%; inhibition at 10 µM (DU-145): < 10%; inhibition at 10 µM (SK-MEL-5): 34.6%; inhibition at 10 µM (UO-31): < 10%; inhibition at 10 µM (SW-620): < 10%; inhibition at 10 µM (U251): 31.8%
